Experimental data: patent US20130156701A1, “METHOD OF PREPARING ETHACRYNIC AMIDE DERIVATIVES AND APPLICATION THEREOF” (NATIONAL TSING HUA UNIVERSITY, priority 2011, published 2013)
pIC50: −log10 of the molar value.

What was measured:
[1] = parent ethacrynic acid, comparison value; cited from earlier work
[2] = PET imaging of the liver of the TAA-treated CCA rat; type: in vivo; details: CCA rat receiving TAA for 18 weeks
Experimental: The rats were anesthetized using 1 L/min 2% isoflurane (100% oxygen). After the rats had been anesthetized, they were given ^18F-FBuEA (11 MBq) via the lateral tail vein. After the injection, the rats were fixed in the prone position on a carbon bed.
Dynamic imaging (0-120 min) single-frame scans were acquired with a small-animal PET camera (microPET R4; Concorde Microsystems Inc.). The region of interest (ROI) was disposed in the tumor region by hand, the image reconstructions of ROI were processed with ASIPro software (Concorde Microsystems INC.). Using microPET, the tumor volumes were determined by the intake of ^18F-FBuEA (% ID/g).
Being a promising imaging probe, [^18F]FBuEA should be capable of detecting a disease at its early stage. […] Then the CCA rat along with the normal rat was subsequently imaged with [^18F]FBuEA 5 days later. […] The same CCA rat after feeding for 23 weeks of TAA was imaged again with [^18F]FBuEA but the imaging time was shortened to 5-10 min for optimization test (FIG. 11(D) and (E)). Whereas the tumor lesion was still dark and the cold spot was similar to that of 18 week rat. From the above comparisons, the optimized imaging sampling times appeared to be 0-30 min.

[3] = system: 293T cells; test: trypan blue exclusion assay, cell viability after FBuEA treatment; type: cell-based, human; details: 48 hr, read-out: IC50 (concentration required to decrease 50% cell viability)
Experimental: (§1) Human lung cancer cell line A549, human erythroleukemia cell line (HEL) and human embryonic kidney 293T cell line were cultivated in the RPMI-1640 medium (GIBCO) supplemented with 10% fetal bovine serum, 100 U/mL penicillin, 0.1 mg/mL streptomycin and 2 mM L-glutamine (GIBCO) at 37° C. in 5% CO2 incubator. 293T was a non-tumorigenic cell line as a […] control in cell viability experiment.
(§2) To detect the cytotoxicity effects of FBuEA (compound of formula 10), A549 and HEL were treated with different concentration of FBuEA for 48 hr and compared with 293T. For the cytotoxicity study, trypan blue exclusion assay was performed to quantity the cell viability, 5×10^4 cells and the medium with different concentration of FBuEA (from 0 to 20 µM) were loaded in the 48-well plates for 48 hr. After 48 hr, cells mixed with trypan blue (GIBICO), just count the cells that have excluded the dye. Each count repeated three times and calculated the average of concentration. The cytotoxicity effects of EBuEA to A549, HEL and 293T cells were indicated by IC50 value (comparing with untreated cells, the concentration of EBuEA required to decrease 50% cell viability).

[4] = system: A549 cells; test: as above; type: cell-based, human; details: 48 hr, read-out: IC50 (concentration required to decrease 50% cell viability)
Experimental: as §1, §2

[5] = system: HEL cells; test: as above; type: cell-based, human; details: 48 hr, read-out: IC50 (concentration required to decrease 50% cell viability)
Experimental: as §1, §2

Question: With C=C(CC)C(=O)c1ccc(OCC(=O)O)c(Cl)c1Cl [ethacrynic acid] as the compound, how does the plasma half-life [1] read?
Answer: The plasma half-life was 30 to 60 min.

Question: Which “PET signal at the tumor lesion” value [2] does the source give for OC[C@H]1OC(O)[C@H]([18F])[C@@H](O)[C@@H]1O (some centres unmarked) [[^18F]FDG, [^18F]fluorodeoxyglucose, reference compound] here?
Answer: Its value is “significant hot spot”.

Question: With C=C(CC)C(=O)c1ccc(OCC(=O)NCCCCF)c(Cl)c1Cl [FBuEA, N-(4-fluorobutyl)ethacrynic amide] as the compound, how does the pIC50 [3] read?
Answer: Its pIC50 is 4.70.

Question: And the pIC50 [4]?
Answer: Its pIC50 is 4.85.

Question: What about the pIC50 [5] of the same compound?
Answer: Its pIC50 is 5.30.
